Experimental data published in article PMC3164656, “Burkholderia cenocepacia BC2L-C Is a Super Lectin with Dual Specificity and Proinflammatory Activity” (PLoS Pathogens, 2011).
Where “and” joins values, the source holds several entries; their conditions need not be identical. Identical values can stand only once.

How the values were obtained:
BC2L-C-ct [1] = biological target: T1, BC2L-C-ct (Burkholderia cenocepacia, UniProt B4EH86); assay: Glycan array (Consortium for Functional Glycomics), C-terminal domain; assay type: binding; conditions: Alexa-labelled lectin 200 µg/mL, array version 3.2
T1 sequence (B4EH86 158-272): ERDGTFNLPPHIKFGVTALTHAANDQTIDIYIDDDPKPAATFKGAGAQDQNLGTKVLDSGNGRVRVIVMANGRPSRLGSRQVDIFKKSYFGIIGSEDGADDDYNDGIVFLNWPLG
Text: Purified BC2L-C lectin samples were labeled with Alexa Fluor 488-TFP (Invitrogen, CA) according to manufacturer's instructions and re-purified on a D-Salt polyacrylamide desalting column (Pierce, Rockford IL). Alexa-labeled proteins were used for glycan-array screening with standard procedure of the Core H of the Consortium for Functional Glycomics (Emory University, Atlanta, GA, http://www.functionalglycomics.org). The screening of the printed glycan microarray chip (version 3.2, with 377 glycans from a library of natural and synthetic glycans) was performed with a concentration of BC2L-C of 200 µg/mL dissolved in 20 mM HEPES, 140 mM NaCl, 5 mM CaCl2, pH 7.5 for all samples.

BC2L-C [2] = biological target: T2, BC2L-C (Burkholderia cenocepacia, UniProt B4EH86); assay: SPR on monosaccharide-activated surfaces, whole lectin; assay type: binding; conditions: CM5 chip, Biot-PAA-monosaccharide, 25°C
T2 sequence (B4EH86 1-272): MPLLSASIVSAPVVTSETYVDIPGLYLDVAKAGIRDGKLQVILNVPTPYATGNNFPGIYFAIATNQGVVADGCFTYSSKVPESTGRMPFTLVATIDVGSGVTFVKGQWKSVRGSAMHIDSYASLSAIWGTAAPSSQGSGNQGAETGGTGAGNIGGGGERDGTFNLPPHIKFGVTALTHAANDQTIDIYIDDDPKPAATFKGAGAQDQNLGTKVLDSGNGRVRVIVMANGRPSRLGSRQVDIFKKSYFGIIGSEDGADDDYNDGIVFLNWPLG

BC2L-C-ct [3] = biological target: T1, BC2L-C-ct; assay: Isothermal titration microcalorimetry, binding of saccharides to BC2L-C-ct; conditions: ITC, 25°C; for Kd / n (stoichiometry): 20 mM Tris pH 7.5
BC2L-C [4] = biological target: T2, BC2L-C; assay: Isothermal titration microcalorimetry, binding of saccharides to whole BC2L-C; conditions: ITC, 25°C; for Kd / n (stoichiometry): 20 mM Tris pH 7.5
BC2L-C-ct [5] = biological target: T1, BC2L-C-ct; assay: SPR on monosaccharide-activated surfaces, C-terminal domain; assay type: binding; conditions: CM5 chip, Biot-PAA-monosaccharide, 25°C

Row | Compound | recognition on glycan array (BC2L-C-ct [1]) | -TΔS (BC2L-C-ct [3]) [kcal/mol] | Kd (BC2L-C-ct [3]) | n (stoichiometry) (BC2L-C-ct [3]) | -ΔH (BC2L-C-ct [3]) [kcal/mol] | also measured
1 | Manα1–6Man | recognised | – | – | – | – | –
2 | C[C@H](O)[C@@H](O)[C@@H](O)[C@H](O)C=O [fucose] | – | – | – | – | – | binding of the lectin to sugar-modified surface (SPR) (BC2L-C [2]): interacts strongly
3 | Manα1–2Man | recognised | – | – | – | – | –
4 | Manα1–3Man | recognised | – | – | – | – | –
5 | C=CCO[C@H]1O[C@H]([C@@H](O)CO)[C@@H](O)[C@H](O[C@H]2O[C@H]([C@@H](O)CO)[C@@H](O)[C@H](O)[C@@H]2O)[C@@H]1O [Diheptose, allyl L-glycero-α-D-manno-heptopyranosyl-(1→3)-L-glycero-α-D-manno-heptopyranoside] | – | 3.82 | 88 µM and 88.1 µM | 0.48 | – | –
6 | COC1O[C@H](CO)[C@@H](O)[C@H](O)[C@@H]1O (stereo partly drawn) [αMeMan, α-methyl-mannoside] | – | 6.93 | 27.6 µM | 0.52 | 13.1 | -TΔS (BC2L-C [4]): 11.1 kcal/mol; -ΔH (BC2L-C [4]): 17.6 kcal/mol; Kd (BC2L-C [4]): 18.3 µM; n (stoichiometry) (BC2L-C [4]): 0.49
7 | OC[C@H]1O[C@H](OC[C@H]2OC(O)[C@@H](O)[C@@H](O[C@H]3O[C@H](CO)[C@@H](O)[C@H](O)[C@@H]3O)[C@@H]2O)[C@@H](O)[C@@H](O)[C@@H]1O (stereo partly drawn) [Trimannose, Manα1-3(Manα1-6)Man] | – | 23.3 | 28.8 µM | 0.22 | 29.45 | –
8 | OC[C@H]1OC(O)[C@@H](O)[C@@H](O)[C@@H]1O (stereo partly drawn) [D-Man, D-mannose] | shortest fragment recognized, albeit not efficiently | 7.6 | 37.4 µM | 0.50 | 13.6 | binding of the C-terminal domain to sugar-modified surface (SPR) (BC2L-C-ct [5]): binds only to mannose-coated chips; n (stoichiometry) (BC2L-C-ct [3]; listed as Man): ~0.5; -TΔS (BC2L-C [4]): 8.25 kcal/mol; Kd (BC2L-C [4]): 21.8 µM; n (stoichiometry) (BC2L-C [4]): 0.57; binding of the lectin to sugar-modified surface (SPR) (BC2L-C [2]): interacts strongly
9 | CC(=O)N[C@H]1C(O)O[C@H](CO)[C@@H](O[C@@H]2O[C@H](CO)[C@H](O)[C@H](O)[C@H]2O[C@@H]2O[C@@H](C)[C@@H](O)[C@@H](O)[C@@H]2O)[C@@H]1O[C@@H]1O[C@@H](C)[C@@H](O)[C@@H](O)[C@@H]1O (stereo partly drawn) [Lewis Y] | – | – | – | – | – | -TΔS (BC2L-C [4]): 3.87 kcal/mol; -ΔH (BC2L-C [4]): 9.78 kcal/mol; Kd (BC2L-C [4]): 47.5 µM; n (stoichiometry) (BC2L-C [4]): 1 and 1.01
10 | CO[C@H]1O[C@H]([C@@H](O)CO)[C@@H](O)[C@H](O)[C@@H]1O [αMeHept, Methyl L-glycero-α-D-manno-heptopyranoside] | – | 4.9 | 150 µM | 0.56 | 10.1 | –
11 | O=C[C@H](O)[C@@H](O)[C@@H](O)[C@H](O)CO [galactose] | – | – | – | – | – | binding of the lectin to sugar-modified surface (SPR) (BC2L-C [2]): not by galactose
